Results taken from patent US10668049B2, “Methods of treating cognitive decline with transforming growth factor beta inhibitors” (The Regents of the University of California, priority 2008, dated 2020).

Tests used:
TGF-β signaling pathway = test: Microarray and real-time RT-PCR gene expression after in vivo albumin with or without TGF-βR blockers; design: species or system rat; conditions: albumin alone, 24 hours
Experimental: All experimental procedures were approved by the ethical committees dealing with experiments on animals at Charité University Medicine, Berlin and Ben-Gurion University of the Negev, Beer-Sheva. The in vivo experiments were performed as previously described (ivens et al., 2007; Seiffert et al., 2004). Adult male Wistar rats were treated with artificial cerebrospinal fluid (aCSF, composition in mM: 129 NaCl, 21 NaHCO3, 1.25 NaH2PO4, 1.8 MgSO4, 1.6 CaCl2, 3 KCl, 10 glucose) supplemented with deoxycholic acid (DOC, 2 mM, Sigma-Aldrich, Steinheim, Germany), bovine serum albumin (BSA, 0.1 mM. Merck, Darmstadt, Germany) corresponding to 25% of serum albumin concentration, or with TGF-β1 (10 ng/ml, Peprotech, Rocky Hill, N.J.). Sham-operated animals (perfused with aCSF) served as controls. […]
Total RNA was isolated using the TRIzol reagent (Invitrogen. Carlsbad, Calif.) and prepared using the Affymetrix GeneChip one-cycle target labeling kit (Affymetrix, Santa Clara, Calif.). […] Pairwise Pearson correlation coefficients for the three treatments were determined with Excel (Microsoft Corp., Richmond, Wash.). […]
mRNA expression levels were determined by quantitative reverse transcriptase-PCR by real-time kinetic analysis with an iQ5 detection system (Bio-Rad, Hercules, Calif.). Real-time PCR data were analyzed using the PCR Miner program (Zhao and Fernald, 2005). […]

brain slices = test: Field potentials during train stimulation in brain slices exposed to albumin in sACSF; type: cell-based, rat; conditions: for field potential duration (at ⅓ maximal amplitude), 1st stimulus / field potential duration (at ⅓ maximal amplitude), 5th stimulus: treated
Experimental: For electrophysiological experiments, rats were deeply anesthetized with isoflurane and then decapitated. Brains were quickly removed, and transverse hippocampal-cortical slices ([…] thick) were prepared using a vibratome (Campden Instruments, Loughborough, UK). Slices were maintained in a humidified, carbogenated (5% CO2 and 95% O2) gas atmosphere at 36±1° C. and perfused with ACSF in a standard interface chamber (Seiffert et al., 2004; Ivens et al., 2007). To mimic the altered ionic environment during BBB disruption, recordings were acquired in a serum-adapted electrolyte solution (sACSF; see Seiffert et al. 2004). sACSF was similar in composition to the ACSF except for different concentrations of MgSO4 (0.8 mM), CaCl2 (1.3 mM), KCl (5.7 mM) and glutamine (1 mM). “Treated” slices were incubated with sACSF containing 0.1 mM bovine serum albumin for 2 h before transfer to the perfusion chamber.
Electrophysiological recordings were obtained 6-10 h following perfusion with sACSF. Control slices were treated similarly, using sACSF without albumin. For extracellular recordings, glass microelectrodes (˜3 MΩ, 154 mM NaCl) were positioned in layer 4 of the neocortex. Slices were stimulated with brief (100 μs) pulses, by using bipolar stimulation electrodes placed at the border between white and gray matter in the same conical column. Trains of 50 stimuli were applied at 2, 5, 10, 20, 50 and 100 Hz, at 2.5× threshold stimulation intensity. […] Extracellular potassium concentrations ([K+]o) were measured with ion-sensitive microelectrodes (ISMEs; Lux and Neher, 1973: Jauch et al., 2002).
The simulation data presented above predicted maximal EPSP facilitation at 20 Hz when [K^+]o clearance is reduced and decreased facilitation (at 50-100 Hz) when the only change induced is glutamate accumulation in the synaptic cleft. Field potentials in response to stimulation at various frequencies in brain slices during “epileptogenesis” (exposure to albumin in sACSF) compared to controls (sACSF alone) were therefore measured.

[1] = 100 Hz stimulation, treated (n=4)

## albumin: bovine serum albumin, used to induce epileptogenesis
TGF-β signaling pathway
  NF-kappaB cascade, Jak-Stat cascade, and MAPKKK cascade expression: upregulated
Brain slices; 5 Hz stimulation
  stimulation-induced long-lasting epileptiform discharges, slices showing them: 2 of 4
Brain slices; 10-Hz stimulation
  stimulation-induced long-lasting epileptiform discharges, slices showing them: 4 of 4
Brain slices; 10 Hz
  field potential duration (at ⅓ maximal amplitude), 1st stimulus: 6.5 ± 0.7 ms
  field potential duration (at ⅓ maximal amplitude), 5th stimulus: 13.1 ± 2.6 ms
Brain slices; 20 Hz stimulation
  stimulation-induced long-lasting epileptiform discharges, slices showing them: 3 of 4
Brain slices; 20 Hz
  field potential duration (at ⅓ maximal amplitude), 1st stimulus: 6.6 ± 0.8 ms
  field potential duration (at ⅓ maximal amplitude), 5th stimulus: 12.9 ± 2.9 ms
Brain slices; [1]
  field potential amplitude, 1st stimulus: 1.44±0.36 mV
  field potential amplitude, 5th stimulus: 0.47±0.09 mV
